Source: patent US20220162191A1, “SMALL MOLECULE MODULATORS OF IL-17” (LEO PHARMA A/S, priority 2019, published 2022)

These compounds were tested against T1, human IL-17AA (Homo sapiens, UniProt Q16552) (assay: IL-8 release assay in human epithelial keratinocytes adult (HEKa)). Conditions: 3 ng/ml human IL-17AA + 10 ng/ml human TNFalpha, 68-72 h, IL-8 by HTRF, read-out: Rel EC50 L-8 release assay.
T1 construct: host or cells: HEK (human embryonic kidney) cells
T1 sequence (Q16552 24-155) 1: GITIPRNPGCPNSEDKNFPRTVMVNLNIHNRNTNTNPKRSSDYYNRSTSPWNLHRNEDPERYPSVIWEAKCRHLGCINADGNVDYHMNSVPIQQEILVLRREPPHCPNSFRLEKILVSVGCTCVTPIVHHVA
T1 sequence (Q16552 24-155) 2: T1 sequence (Q16552 24-155) 1
Assay type: cell-based
In short: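 IL-8 secretion, quantified by HTRF (665/620 nm) as percent of controls, served as the readout after 68–72 h culture of HEKa cells with compound plus IL-17AA (3 ng/ml final) and TNF-alpha (10 ng/ml final). Four-parameter logistic curves gave relative IC50 and Emax.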

EC50 | SMILES
< 0.1 µM | Cc1n[nH]c(C)c1-c1ccc(NC(=O)[C@@H](NC(=O)C2(F)CC2)[C@@H]2CCCc3ccc(-c4ccnc(N5C[C@H]6C[C@@H]5CO6)c4)cc32)cc1 [Example 28, N-[(1S)-2-[4-(3,5-dimethyl-1H-pyrazol-4-yl)anilino]-1-[(1R)-7-[2-[(1R,4R)-2-oxa-5-azabicyclo[2.2.1]heptan-5-yl]-4-pyridyl]tetralin-1-yl]-2-oxo-ethyl]-1-fluoro-cyclopropanecarboxamide]
0.1 to 1 µM | Cn1cnnc1-c1ccc(NC(=O)C(Cc2cc(-c3cccc(OC(F)F)c3)ccc2Cl)NC(=O)c2ccnn2C)cc1 (centres unmarked) [Example 112, N-[1-[[2-chloro-5-[3-(difluoromethoxy)phenyl]phenyl]methyl]-2-[4-(4-methyl-1,2,4-triazol-3-yl)anilino]-2-oxo-ethyl]-2-methyl-pyrazole-3-carboxamide]
> 1 µM | CC(c1cc(-c2ccc(=O)n(C(C)C)c2)ccc1Cl)C(NC(=O)c1ccnn1C)C(=O)Nc1ccc(-c2cncn2C)cc1 (centres unmarked) [Example 55, N-[2-[2-chloro-5-(1-isopropyl-6-oxo-3-pyridyl)phenyl]-1-[[4-(3-methylimidazol-4-yl)phenyl]carbamoyl]propyl]-2-methyl-pyrazole-3-carboxamide]
0.1 to 1 µM | C[C@H]1CN(c2cc(-c3ccc(Cl)c(C[C@H](NC(=O)c4ccnn4C)C(=O)Nc4ccc(-c5cncn5C)cc4)c3)ccn2)CCN1 [Example 209, N-[(1S)-1-[[2-chloro-5-[2-[(3S)-3-methylpiperazin-1-yl]-4-pyridyl]phenyl]methyl]-2-[4-(3-methylimidazol-4-yl)anilino]-2-oxo-ethyl]-2-methyl-pyrazole-3-carboxamide]
< 0.1 µM | Cc1n[nH]c(C)c1-c1ccc(NC(=O)[C@@H](NC(=O)C2(F)CC2)[C@@H]2CCc3ccc(-c4ccnc(N5C[C@@H]6C[C@H]5CO6)c4)cc32)cc1 [Example 354, N-[(1S)-2-[4-(3,5-dimethyl-1H-pyrazol-4-yl)anilino]-1-[(1R)-6-[2-[(1S,4S)-2-oxa-5-azabicyclo[2.2.1]heptan-5-yl]-4-pyridyl]indan-1-yl]-2-oxo-ethyl]-1-fluoro-cyclopropanecarboxamide]
0.1 to 1 µM | CN1CCN(c2cc(-c3ccc(Cl)c(C[C@H](NC(=O)c4ccnn4C)C(=O)Nc4ccc(-c5cncn5C)cc4)c3)ccn2)CC1 [Example 206, N-[(1S)-1-[[2-chloro-5-[2-(4-methylpiperazin-1-yl)-4-pyridyl]phenyl]methyl]-2-[4-(3-methylimidazol-4-yl)anilino]-2-oxo-ethyl]-2-methyl-pyrazole-3-carboxamide]
> 1 µM | CC(C)n1cc(-c2ccc(Cl)c(C[C@H](NC(=O)CC3CC3)C(=O)Nc3ccc(-c4nncn4C)cc3)c2)ccc1=O [Example 116, (2S)-3-[2-chloro-5-(1-isopropyl-6-oxo-3-pyridyl)phenyl]-2-[(2-cyclopropylacetyl)amino]-N-[4-(4-methyl-1,2,4-triazol-3-yl)phenyl]propanamide]
> 1 µM | CC(C)n1cc(-c2ccc3c(c2)[C@@H]([C@@H](NC(=O)c2ccnn2C)C(=O)Nc2ccc(-c4cncn4C)cc2)CCC3)ccc1=O [Example 48, N-[(1R)-1-[(1S)-7-(1-isopropyl-6-oxo-3-pyridyl)tetralin-1-yl]-2-[4-(3-methylimidazol-4-yl)anilino]-2-oxo-ethyl]-2-methyl-pyrazole-3-carboxamide]
< 0.1 µM | Cc1n[nH]cc1-c1ccc(NC(=O)C(NC(=O)OC2CC2)C(c2ccccc2)c2cccc(-c3ccc(=O)n(C(C)C)c3)c2)cc1 (single isomer, unassigned; diastereomer 4) [Example 245, cyclopropyl N-[1-[[3-(1-isopropyl-6-oxo-3-pyridyl)phenyl]-phenyl-methyl]-2-[4-(3-methyl-1H-pyrazol-4-yl)anilino]-2-oxo-ethyl]carbamate (Diastereomer 4)]
< 0.1 µM | CC(C)n1cc(-c2ccc3c(c2)[C@H]([C@H](NC(=O)c2ccnn2C)C(=O)Nc2ccc(-c4cncn4C)cc2)CCC3)ccc1=O [Example 30, N-[(1S)-1-[(1R)-7-(1-isopropyl-6-oxo-3-pyridyl)tetralin-1-yl]-2-[4-(3-methylimidazol-4-yl)anilino]-2-oxo-ethyl]-2-methyl-pyrazole-3-carboxamide]
< 0.1 µM | Cc1n[nH]c(C)c1-c1ccc(NC(=O)[C@H](Cc2cc(-c3ccnc(N4C[C@@H]5C[C@H]4CN5)c3)ccc2Cl)NC(=O)C2(F)CC2)cc1 [Example 223, N-[(1S)-1-[[2-chloro-5-[2-[(1S,4S)-2,5-diazabicyclo[2.2.1]heptan-2-yl]-4-pyridyl]phenyl]methyl]-2-[4-(3,5-dimethyl-1H-pyrazol-4-yl)anilino]-2-oxo-ethyl]-1-fluoro-cyclopropanecarboxamide]
0.1 to 1 µM | CC(C)n1cc(-c2ccc3c(c2)C([C@H](NC(=O)c2ccnn2C)C(=O)Nc2ccc(-c4cncn4C)cc2)CC3)ccc1=O (stereo partly drawn) [Example 25, N-[(1S)-1-[6-(1-isopropyl-6-oxo-3-pyridyl)indan-1-yl]-2-[4-(3-methylimidazol-4-yl)anilino]-2-oxo-ethyl]-2-methyl-pyrazole-3-carboxamide]
0.1 to 1 µM | Cc1n[nH]c(C)c1-c1ccc(NC(=O)[C@@H](NC(=O)C2(F)CC2)C(C)c2cc(-c3ccc(=O)n(C(C)C)c3)ccc2Cl)cc1 (stereo partly drawn) [Example 51, N-[(1S)-2-[2-chloro-5-(1-isopropyl-6-oxo-3-pyridyl)phenyl]-1-[[4-(3,5-dimethyl-1H-pyrazol-4-yl)phenyl]carbamoyl]propyl]-1-fluoro-cyclopropanecarboxamide]
> 1 µM | Cc1cc(-c2ccc(Cl)c(CC(NC(=O)c3ccnn3C)C(=O)Nc3ccc(-c4nncn4C4CC4)cc3)c2)ccn1 (centres unmarked) [Example 73, N-[1-[[2-chloro-5-(2-methyl-4-pyridyl)phenyl]methyl]-2-[4-(4-cyclopropyl-1,2,4-triazol-3-yl)anilino]-2-oxo-ethyl]-2-methyl-pyrazole-3-carboxamide]
> 1 µM | CC(C)n1cc(-c2ccc(Cl)c(CC(NC(=O)C3(F)CC3)C(=O)Nc3ccc(-c4nncn4C)cc3)c2)cc(C(F)(F)F)c1=O (centres unmarked) [Example 307, N-[1-[[2-chloro-5-[1-isopropyl-6-oxo-5-(trifluoromethyl)-3-pyridyl]phenyl]methyl]-2-[4-(4-methyl-1,2,4-triazol-3-yl)anilino]-2-oxo-ethyl]-1-fluoro-cyclopropanecarboxamide]
0.1 to 1 µM | Cc1noc(C)c1-c1ccc(NC(=O)C(Cc2cc(-c3ccc(=O)n(C(C)C)c3)ccc2Cl)NC(=O)c2ccnn2C)cc1 (centres unmarked) [Example 93, N-[1-[[2-chloro-5-(1-isopropyl-6-oxo-3-pyridyl)phenyl]methyl]-2-[4-(3,5-dimethylisoxazol-4-yl)anilino]-2-oxo-ethyl]-2-methyl-pyrazole-3-carboxamide]
0.1 to 1 µM | Cc1n[nH]c(C)c1-c1ccc(NC(=O)[C@H](NC(=O)C2(F)CC2)[C@H](C)c2cccc(-c3ccnc(N4C[C@@H]5C[C@H]4CO5)c3)c2)cc1 [Example 340, N-[(1R,2R)-1-[[4-(3,5-dimethyl-1H-pyrazol-4-yl)phenyl]carbamoyl]-2-[3-[2-[(1S,4S)-2-oxa-5-azabicyclo[2.2.1]heptan-5-yl]-4-pyridyl]phenyl]propyl]-1-fluoro-cyclopropanecarboxamide]
